Data from patent US20250326785A1, “SODIUM SALT AND ETHANOLAMINE SALT OF 23-HYDROXYTORMENTIC ACID” (HUYABIO International, LLC, priority 2024, published 2025).

Assays:
[1] = Solubility in water (temperature dependence); assay type: physicochemical
Method: Sodium salt of Pattern 5 was prepared using inverse solubility, with dissolution of HBI-3808 free acid in water at low temperature, and heating to reach super saturation, followed by anti-solvent addition. The solids isolated from this process were consistent with sodium salt of pattern 15, which can be converted to sodium salt of pattern 5 via drying under vacuum with exposure to elevated humidity (and the conversion proceeds via sodium salt of pattern 2 as an intermediate).

[2] = test system: Adult rats (Sprague Dawley) with MI by LAD ligation; assay: Rat myocardial infarction model: morphological studies (scar area and thickness, computed planimetry); assay type: in vivo; settings: for scar areas: p<0.05 and 0.01 respectively
Text: (§1) Animal Model and Myocardial Infarction: Adult rats (Sprague Dawley (SD), body weight, -250 g) were used to generate a model with MI by LAD ligation of the heart as described in the previous study (Chongyu Zhang, Meng-Hsuan Hsieh, Song-Yi Wu, Shu-Hong Li, Jun Wu, Shi-Ming Liu, Hao-Ji Wei, Richard D. Weisel, Hsing-Wen Sung, Ren-Ke Li, “A self-doping conductive polymer hydrogel that can restore electrical impulse propagation at myocardial infarct to prevent cardiac arrhythmia and preserve ventricular function,” Biomaterials, Volume 231, 2020, 119672, ISSN 0142-9612). In brief, each rat was pre-medicated with 5% isoflurane in a chamber.
(§2) The selected rats having similar FS were randomly divided into 6 groups: (1) Negative control group (treated with 40% SBCD); (2) Positive control group (with HBI-3802, 2 mg/kg /day); (3) Dose 1 (HBI-3808 2 mg/kg/day); (4) Dose 2 (HBI-3808 0.64 mg/kg day); (5) Dose 3 (HBI-3808 0.2 mg/kg/day); and (6) Sham control (No myocardial infarction and treated with 40% SBCD).
Morphological Studies: After cardiac functional measurements, the animals were euthanized. The hearts were rapidly excised, fixed with 10% formaldehyde for 7 days, sliced into 2 mm thick slices, and photographed.
Cross-sectional areas of the left ventricular free wall (LVFW) and scar tissue were measured using computed planimetry. Surface areas of the epicardial LVFW and scar tissue were measured as the sum of the epicardial length multiplied by the slice thickness (2 mm). The surface area percentage of scar tissue in the LVFW was calculated as follows: [(epicardial scar area)/(epicardial LVFW area)×100]. The thickness of scar area was presented as an average of wall thickness measured at the middle and at each edge of the scar from the slice having the thinnest scar.

[3] = test system: Adult rats (Sprague Dawley) with MI by LAD ligation; assay: Rat myocardial infarction model: cardiac function by echocardiography; assay type: in vivo
Text: as §1
The heart was then exposed through a left anterolateral thoracotomy incision. […] Sham animals was treated identically except that the suture was passed through the myocardium beneath the LAD without ligation. The incision was then closed in layers using 3-0 Vicryl suture and 3-0 silk for the skin. Post-surgery treatment followed per UHN ARC requirement with antibiotics (Duplocillin LA, 15,000 IU/kg, I.M.) and analgesics (Buprenorphrine, 0.03 mg/Kg, SC), and the animals recovered from anesthesia in a warmed environment, under continuous monitoring and care for 1-2 hours.
as §2
Treatments: The rats were treated by gastric gavage daily starting 6 days after MI for 2 weeks (Turner PV, Vaughn E, Sunohara-Neilson J, Ovari J, Leri F, “Oral gavage in rats: animal welfare evaluation,” J. Am. Assoc. Lab. Anim. Sci., 2012 Jan; 51(1): pp. 25-30. PMID: 22330864; PMCID: PMC3276962) as described in Table 18. The same volume of vehicle (1 mL/rat/day) was given to the rats in sham control group. Ten rats were studied in each group (N=10/group). The schematic plan is depicted in FIG. 35.
Oral Treatment: Six days after permanent LAD ligation, the selected rats received the first daily treatment. HBI-3808 (at 1 of the 3 doses) or 3802 at 2 mg/kg/day (1 ml/rat/day) delivered by gastric gavage daily for 14 days (2). 40% SB-CD alone (1 ml/rat/day) was similarly administered to rats in the control and sham groups.
Measurement of Cardiac Function: Cardiac function was evaluated by echocardiography prior to LAD ligation, prior to treatment (6 days post myocardial infarction), and at 7- and 21-days post first treatment (13 and 27 days post myocardial infarction). The end-point cardiac function was also evaluated using a pressure-volume catheter on Day 21 after first treatment (27 days post myocardial infarction).
Echocardiography: Each rat was pre-medicated with isoflurane in a chamber, and anesthesia was maintained during measurement with 2.5% isoflurane delivered using a nose cone. Echocardiographic examinations were performed using a GE Vivid-7 System with a 10S transducer. Depth was set at 2 cm. Short-axis views were obtained using the parasternal approach.
Left ventricular (LV) dimensions [end-diastolic dimension (LVEDD) and end-systolic dimension (LVESD)] from M mode at short axis views of the mid-level LV. Fractional shortening (% FS) was calculated using the equation: [(LVEDD−LVESD)/LVEDD]×100. Ejection fraction (% EF) was calculated using the equation: [(LVEDD^3−LVESD^3)/LVEDD^3]×100.

[4] = 0.2 mg/kg/day, control vs treated
[5] = 0.64 mg/kg/day, control vs treated
[6] = 0.64 mg/kg/day, compared to 0.2 mg/kg HBI-3808, p<0.02
[7] = 2 mg/kg/day, 21 days after treatment, p<0.01

Q: Which “solubility in water versus temperature” value [1] does the source give for `CC1CCC2(C(=O)[O-])CCC3(C)C(=CCC4C5(C)CC(O)C(O)C(C)(CO)C5CCC43C)C2C1(C)O.[Na+]` (stereo not shown) [HBI-3808 sodium salt of Pattern 5, sodium salt of 23-hydroxytormentic acid] here?
A: inverse solubility in water

Q: With `C[C@@H]1CC[C@]2(C(=O)O)CC[C@]3(C)C(=CCC4[C@@]5(C)C[C@@H](O)[C@H](O)[C@@](C)(CO)C5CC[C@]43C)C2[C@]1(C)O` (stereo partly shown) [HBI-3808, 23-hydroxytormentic acid] as the compound, how does the scar thickness [2, 4] read?
A: thinner in the control group

Q: And the scar areas [2, 4]?
A: larger in the control group

Q: And the scar thickness [2, 5]?
A: thinner in the control group

Q: What about the scar areas [2, 5] of the same compound?
A: larger in the control group

Q: And the scar thickness ([2]; 2 mg/kg/day, 21 days after first treatment)?
A: thinner in the control group

Q: And the “scar (infarct) areas” value ([2]; 2 mg/kg/day, 21 days after first treatment, p<0.01)?
A: smaller infarct areas than the 2 mg/kg HBI-3802 group

Q: What about the “difference of cardiac function (EF) Days 27 vs 6 post infarction” value (“difference of cardiac function” for short) ([3]; 0.16 mg of HBI-3808) of the same compound?
A: showed improvement in cardiac function compared with Day 6

Q: And the “difference of cardiac function” value ([3]; 0.2 mg/kg/day)?
A: prevented further deterioration of cardiac dysfunction

Q: And the “Left ventricular end systolic dimension (LVESD)” value ([3]; 0.2 mg/kg/day, vs control at 21 days after treatment, p<0.01)?
A: smaller LVESD compared with control group

Q: And the “Ejection fraction (EF) / cardiac function” value ([3]; 0.2 mg/kg/day, vs control over 21 days, p<0.01)?
A: better cardiac function than the control group

Q: What about the “Fractional shortening (FS) / cardiac function” value ([3]; 0.2 mg/kg/day, vs control, p<0.01) of the same compound?
A: better function compared with the control group

Q: What about the “systolic dilation between Day 6 and Day 21” value ([3]; 0.64 mg/kg/day) of the same compound?
A: reversal in systolic dilation

Q: What about the “Ejection fraction (EF)” value [3, 6] of the same compound?
A: improved EF

Q: And the “Fractional shortening (FS) / cardiac function” value [3, 6]?
A: improved cardiac function

Q: And the “diastolic dilation between Day 6 and 21” value ([3]; 2 mg/kg/day)?
A: no diastolic dilation

Q: What about the “difference of cardiac function” value ([3]; 2 mg/kg/day) of the same compound?
A: improvement in cardiac function compared with Day 6, which was significantly illustrated

Q: What about the “efficacy compared with HBI-3802” value ([3]; 2 mg/kg/day) of the same compound?
A: greater efficacy compared with HBI-3802

Q: What about the “systolic dilation between Day 6 and Day 21” value ([3]; 2 mg/kg/day) of the same compound?
A: reversal in systolic dilation

Q: And the “Ejection fraction (EF) after treatment” value ([3]; 2 mg/kg/day gastric gavage 14 days from day 6 post MI, vs 0.64 and 0.2 mg/kg HBI-3808 and control)?
A: increased significantly

Q: And the “cardiac function (conclusion)” value ([3]; 2 mg/kg/day oral)?
A: improved both diastolic and systolic function

Q: And the “cardiac function (EF) compared with 2 mg/kg HBI-3802 group” value [3, 7]?
A: improvement in cardiac function

Q: What about the “cardiac function (FS) compared with 2 mg/kg HBI-3802 group” value [3, 7] of the same compound?
A: improvement in cardiac function

Q: And the “Left ventricular end systolic dimension (LVESD)” value ([3]; 2 mg/kg/day, vs 2 mg/kg HBI-3802, 0.64 and 0.2 mg/kg HBI-3808 and control, p<0.01)?
A: smaller

Q: And the “Left ventricular end diastolic dimension (LVEDD)” value ([3]; 2 mg/kg/day, vs 0.64, 0.2 mg/kg and control groups, p<0.01)?
A: smaller

Q: And the “Fractional shortening (FS)” value ([3]; 2 mg/kg/day, vs 0.64 and 0.2 mg/kg HBI-3808 and control)?
A: increased FS significantly

Q: What about the “improvement of cardiac function (conclusion)” value ([3]; 0.64 or 0.2 mg/kg/day) of the same compound?
A: lower-magnitude improvement of cardiac function

Q: What about the “dose response of cardiac function restoration” value ([3]; 2, 0.64, 0.2 mg/kg/day) of the same compound?
A: had a dose response
